Assay results reported in the NIST ThermoML archive (doi:10.1016/j.jct.2006.03.021).
± gives the expanded uncertainty stated by the source.

Test: molar heat capacity at constant pressure
Conditions: 101.33 kPa, Crystal, Vacuum adiabatic calorimetry

O.O.OC[C@H]1O[C@H](O[C@H]2O[C@H](CO)[C@@H](O)[C@H](O)[C@H]2O)[C@H](O)[C@@H](O)[C@@H]1O [D-(+)-trehalose dihydrate]
Conditions	molar heat capacity at constant pressure [J/K/mol]
13.55 K	6.385 ± 0.061
14.6 K	7.838 ± 0.071
15 K	8.51 ± 0.08
15.59 K	9.345 ± 0.082
16.61 K	10.96 ± 0.092
17.67 K	12.73 ± 0.1
18.75 K	14.64 ± 0.12
19.81 K	16.57 ± 0.13
20 K	16.78 ± 0.13
20.85 K	18.51 ± 0.14
21.9 K	20.53 ± 0.15
22.93 K	22.57 ± 0.17
23.97 K	24.62 ± 0.18
25.02 K	26.77 ± 0.19
26.11 K	29 ± 0.2
27.24 K	31.35 ± 0.21
28.42 K	33.79 ± 0.23
29.57 K	36.22 ± 0.24
30 K	37.06 ± 0.24
30.71 K	38.61 ± 0.25
31.92 K	41.15 ± 0.27
33.18 K	43.81 ± 0.28
34.5 K	46.58 ± 0.3
35.82 K	49.36 ± 0.32
37.15 K	52.14 ± 0.33
38.46 K	54.9 ± 0.35
39.78 K	57.62 ± 0.36
40 K	58.13 ± 0.37
41.15 K	60.45 ± 0.38
42.54 K	63.33 ± 0.4
43.91 K	66.14 ± 0.42
45.27 K	68.9 ± 0.43
46.63 K	71.67 ± 0.45
48.02 K	74.49 ± 0.47
49.43 K	77.32 ± 0.49
50 K	78.42 ± 0.49
50.88 K	80.24 ± 0.5
52.39 K	83.22 ± 0.52
53.93 K	86.27 ± 0.54
55.51 K	89.39 ± 0.56
56.3 K	90.95 ± 0.57
57.99 K	94.25 ± 0.59
59.66 K	97.53 ± 0.61
60 K	98.14 ± 0.61
61.39 K	100.85 ± 0.63
63.18 K	104.27 ± 0.65
64.99 K	107.74 ± 0.67
66.83 K	111.22 ± 0.69
68.66 K	114.67 ± 0.71
70 K	117.19 ± 0.73
70.49 K	118.11 ± 0.74
72.33 K	121.52 ± 0.76
74.17 K	124.94 ± 0.78
76.04 K	128.4 ± 0.8
77.89 K	131.81 ± 0.82
79.75 K	135.21 ± 0.84
80 K	135.65 ± 0.84
81.63 K	138.61 ± 0.86
83.51 K	142.01 ± 0.88
85.4 K	145.39 ± 0.9
87.31 K	148.81 ± 0.92
89.22 K	152.17 ± 0.95
90 K	153.54 ± 0.96
91.14 K	155.56 ± 0.97
93.09 K	158.95 ± 0.99
95.06 K	162.41 ± 1
97.04 K	165.84 ± 1
98.99 K	169.18 ± 1.1
100 K	170.91 ± 0.43
100.9 K	172.45 ± 0.44
102.78 K	175.65 ± 0.44
104.63 K	178.78 ± 0.45
106.45 K	181.89 ± 0.45
108.25 K	184.88 ± 0.46
110 K	187.82 ± 0.47
110.03 K	187.85 ± 0.47
111.78 K	190.76 ± 0.47
113.51 K	193.65 ± 0.48
115.22 K	196.52 ± 0.48
116.9 K	199.3 ± 0.49
118.57 K	202 ± 0.5
120 K	204.35 ± 0.5
120.3 K	204.92 ± 0.5
122.1 K	207.75 ± 0.51
123.94 K	210.99 ± 0.51
125.83 K	213.81 ± 0.52
127.75 K	216.99 ± 0.53
129.72 K	220.18 ± 0.53
130 K	220.6 ± 0.53
131.71 K	223.29 ± 0.54
133.7 K	226.52 ± 0.55
135.72 K	229.81 ± 0.55
137.73 K	232.95 ± 0.56
139.73 K	236.18 ± 0.57
140 K	236.57 ± 0.57
141.73 K	239.27 ± 0.57
143.74 K	242.56 ± 0.58
145.72 K	245.6 ± 0.58
147.72 K	248.78 ± 0.59
149.71 K	251.89 ± 0.6
150 K	252.32 ± 0.6
151.71 K	254.95 ± 0.6
153.75 K	258.14 ± 0.61
155.79 K	261.37 ± 0.62
157.84 K	264.6 ± 0.62
159.89 K	267.82 ± 0.63
160 K	267.93 ± 0.63
161.93 K	270.95 ± 0.64
163.96 K	274.13 ± 0.64
165.96 K	277.24 ± 0.65
167.95 K	280.33 ± 0.66
169.92 K	283.36 ± 0.66
170 K	283.46 ± 0.66
171.88 K	286.43 ± 0.67
173.83 K	289.42 ± 0.68
175.76 K	292.43 ± 0.68
177.63 K	295.3 ± 0.69
179.56 K	298.22 ± 0.69
180 K	299 ± 0.7
181.49 K	301.33 ± 0.7
183.41 K	304.3 ± 0.71
185.35 K	307.28 ± 0.71
187.29 K	310.3 ± 0.72
189.22 K	313.27 ± 0.72
190 K	314.53 ± 0.73
191.14 K	316.25 ± 0.73
193.07 K	319.27 ± 0.74
195.02 K	322.27 ± 0.74
196.95 K	325.32 ± 0.75
198.87 K	328.28 ± 0.76
200 K	330.09 ± 0.76
200.8 K	331.37 ± 0.76
202.74 K	334.35 ± 0.77
204.67 K	337.37 ± 0.78
206.6 K	340.29 ± 0.78
208.53 K	343.33 ± 0.79
210 K	345.69 ± 0.79
210.48 K	346.48 ± 0.79
212.42 K	349.61 ± 0.8
214.34 K	352.52 ± 0.81
216.28 K	355.42 ± 0.81
220 K	361.36 ± 0.83
220.18 K	361.71 ± 0.83
222.12 K	364.67 ± 0.83
224.04 K	367.73 ± 0.84
225.95 K	370.88 ± 0.85
227.85 K	373.65 ± 0.85
229.74 K	376.66 ± 0.86
230 K	377.12 ± 0.86
231.62 K	379.52 ± 0.86
233.49 K	382.68 ± 0.87
235.35 K	385.55 ± 0.88
237.2 K	388.42 ± 0.88
239.04 K	391.36 ± 0.89
240 K	392.98 ± 0.89
240.87 K	394.34 ± 0.89
242.69 K	397.3 ± 0.9
244.52 K	400.18 ± 0.91
246.37 K	403.04 ± 0.91
248.24 K	406.16 ± 0.92
250 K	408.95 ± 0.92
250.12 K	409.17 ± 0.93
252 K	412.27 ± 0.93
253.8 K	415.1 ± 0.94
255.61 K	417.77 ± 0.94
257.43 K	420.98 ± 0.95
259.28 K	423.94 ± 0.96
260 K	425.06 ± 0.96
261.14 K	426.99 ± 0.96
263.01 K	430.01 ± 0.97
264.88 K	433.05 ± 0.98
266.76 K	435.05 ± 0.98
268.64 K	439.07 ± 0.99
270 K	441.31 ± 0.99
270.53 K	442.21 ± 0.99
272.4 K	445.33 ± 1
274.28 K	448.34 ± 1
276.17 K	451.18 ± 1
278.06 K	454.48 ± 1
279.95 K	457.55 ± 1
280 K	457.7 ± 1
281.85 K	460.72 ± 1
283.75 K	463.95 ± 1
285.66 K	466.99 ± 1.1
287.57 K	470.12 ± 1.1
289.49 K	473.55 ± 1.1
290 K	474.26 ± 1.1
291.41 K	476.85 ± 1.1
293.32 K	479.88 ± 1.1
295.23 K	482.95 ± 1.1
297.16 K	486.02 ± 1.1
298.15 K	487.87 ± 1.1
299.07 K	489.45 ± 1.1
300 K	490.98 ± 1.1
300.98 K	492.63 ± 1.1
